Reference: patent US4474977A, “Amino-alcohol derivatives” (Continental Pharma S.A., priority 1977, dated 1984)
Like-named read-outs stand apart in the source and are kept apart here.

Experiments:
[1] = system: spontaneously hypertensive rats; assay: antihypertensive activity, oral administration to non-anesthetized spontaneously hypertensive rats, systolic arterial pressure (plethysmographic); assay type: in vivo, rat; settings: for antihypertensive activity: 60 mgr/kg oral (some also at other doses), in words; for antihypertensive effect (rating): oral
Protocol: Their antihypertensive activity was tested by oral administration to non-anesthetized, spontaneously hypertensive rats, on which the systolic arterial pressure is measured at the level of the median coccygeal artery by means of a plethysmographic method (J. Roba, G. Lambelin, A. F. De Schaepdryver, Arch. int. Pharmacodyn., 200, 182, 1972). The arterial pressure was measured every 30 minutes from two hours before to three hours after oral administration of 60 mgr/kg of the tested products or of a placebo (1% tragacanth gum mucilage). When being of interest, the products were tested at other doses under similar conditions. Only rats having a systolic pressure of 180 to 220 mm Hg were used. Two rats were used for each product. The treatments were made without the knowledge of the person making the measures. The antihypertensive effects were rated as follows:
+: reduction of 10 to 20 mm Hg
++: reduction of 20 to 30 mm Hg
+++: reduction of 30 to 50 mm Hg
++++: reduction >50 mm Hg

[2] = system: femoral arterial circulation; assay: peripheral vasodilator activity on anaesthetized dog, femoral arterial perfusion pressure; assay type: in vivo; settings: 30 μg/kg injected in femoral perfusion (some also at other doses); in words
Protocol: The peripheral vasodilator activity of the products according to the invention was measured on anaesthetized dog at the level of the femoral arterial circulation. To this end, the femoral artery the collaterals of which were ligaturated was perfused with a constant flow rate of blood taken from aorta. Thus the perfusion pressure measured at the level of the femoral artery, varied as a function of the resistance of perfused area. The tested products and the corresponding solvents were directly injected in the system at the dose of 30 μg/kg. The blood circulation rate being maintained constant, a vasodilation was thus measured by a decrease of the perfusion pressure. The latter is rated in comparison with the action of papaverine considered as standard and injected once per group of 4 products.
When being of interest, the products were tested at other doses under the same conditions. The vasodilation activity was rated as follows:
+: 1/3 of the papaverine activity
++: 2/3 of the papaverine activity
+++: activity equal to that of papaverine (i.e. 30 to 40 mm Hg)
++++: activity higher than that of papaverine.

[3] = system: guinea pig ileum; assay: antispasmodic activity against contractions of guinea pig ileum induced by histamine and acetylcholine; settings: Cavia porcellus
Protocol: The antispasmodic activity of the products according to the invention was tested against contractions of guinea pig ileum, such as induced by histamine and acetylcholine. These tests allow to reveal an antihistaminic activity, an anticholinergic activity or a musculotropic antispasmodic activity. The response to the contracting agent (submaximum concentration)was repeated every 5 minutes before and after injection of increasing doses of the tested products (10^-8 to 10^-5 M). The various doses were added at intervals of 20 minutes or of the time necessary to the development of the maximum effect.
The percentage of inhibition under the influence of tested products was calculated and the theoretical concentration ensuring 50% inhibition was graphically determined for each experience. These values were expressed as -log IC50 (M). The standard value for papaverine was 4.50, namely an effective concentration of 30 μM.

[4] = 50% inhibition of contractions, converted from -log IC50, read-out: effective concentration / concentration corresponding to -log IC50 (converted)
[5] = contractions induced by histamine and acetylcholine, 10^-8 to 10^-5 M, read-out: -log IC50 (M), antispasmodic activity (converted)
[6] = read-out: -log IC50 (M), antispasmodic activity (converted)
[7] = read-out: effective concentration / concentration corresponding to -log IC50 (converted)

| Structure (SMILES) | antihypertensive activity [1] | peripheral vasodilator activity (compared with papaverine) [2] | IC50 [3, 4] | IC50 [3, 5] | other results |
| --- | --- | --- | --- | --- | --- |
| CCCCCCCCNC(C)C(OC(=O)C1CCCCC1)c1ccc(SC(C)C)cc1 (stereo not shown) [Compound 7] | suitable antihypertensive activity | – | – | – | – |
| CCCCCCCCNC(C)C(OC(=O)C(C)C)c1ccc(SC(C)C)cc1 (stereo not shown) [Compound 4] | – | at least equal to that of papaverine | < 1e-06 M | < 1e-06 M | – |
| CCCCCCCCNC(C)C(OC(C)=O)c1ccc(OC(C)C)cc1 (stereo not shown) [Compound 18, 1-acetyloxy-1-(4-isopropyloxyphenyl)-2-n.octylaminopropane] | suitable antihypertensive activity | at least equal to that of papaverine | – | – | IC50 [3, 6]: < 1e-06 M; IC50 [3, 7]: < 1e-06 M |
| CC(C)Oc1ccc(C(OC(=O)C2CCCCC2)C(C)NCCCCc2ccccc2)cc1 (stereo not shown) [Compound 20] | suitable antihypertensive activity | at least equal to that of papaverine | < 1e-06 M | < 1e-06 M | – |
| CCCCCCCCNC(C)C(OC(=O)CCc1ccccc1)c1ccc(SC(C)C)cc1 (stereo not shown) [Compound 32] | – | – | < 1e-06 M | < 1e-06 M | – |
| CC(=O)OC(c1ccc(SC(C)C)cc1)C(C)NCCCCc1ccccc1 (stereo not shown) [Compound 27] | suitable antihypertensive activity | at least equal to that of papaverine | – | – | IC50 [3, 6]: < 1e-06 M; IC50 [3, 7]: < 1e-06 M |
| CCCCCCCCNC(C)C(OC(=O)Cc1ccc(OC)cc1)c1ccc(SC(C)C)cc1 (stereo not shown) [Compound 35] | suitable antihypertensive activity | – | – | – | – |
| COC(=O)[C@H]1[C@H]2C[C@@H]3c4[nH]c5cc(OC)ccc5c4CCN3C[C@H]2C[C@@H](OC(=O)c2cc(OC)c(OC)c(OC)c2)[C@@H]1OC [reserpine, reference compound] | – | – | – | – | antihypertensive effect (rating) ([1]; 3 mgr/kg): +++ (reduction of 30 to 50 mm Hg) |
| CCCCCCCCCCCCNC(C)C(O)c1ccc(C(C)C)cc1 (stereo not shown) [Compound 82] | – | at least equal to that of papaverine | – | – | – |
| CCCCCCCCNC(C)C(O)c1ccc(OCCCC)cc1 (stereo not shown) [Compound 91, 1-(4-butoxyphenyl)-2-n-octylamino-1-propanol] | – | at least equal to that of papaverine | – | – | IC50 [3, 6]: < 1e-06 M; IC50 [3, 7]: < 1e-06 M |
| CCCCCCCCNC(C)C(OC(=O)C1CCCC1)c1ccc(SC(C)C)cc1 (stereo not shown) [Compound 8] | suitable antihypertensive activity | – | – | – | – |
| COc1ccc(Cc2nccc3cc(OC)c(OC)cc23)cc1OC [papaverine, reference compound] | – | – | – | – | IC50 [3, 6]: 3.16e-05 M; IC50 [3, 7]: 3e-05 M |
| CC(=O)OC(c1ccc(SC(C)C)cc1)C(C)NCCOc1ccccc1 (stereo not shown) [Compound 25] | suitable antihypertensive activity | – | – | – | – |
| CCCC(=O)OC(c1ccc(SC(C)C)cc1)C(C)NCCCCc1ccccc1 (stereo not shown) [Compound 23] | – | at least equal to that of papaverine | < 1e-06 M | < 1e-06 M | – |
| CCCCCCCCNC(C)C(OC(=O)CCCCC(=O)OC)c1ccc(SC(C)C)cc1 (stereo not shown) [Compound 31] | – | – | < 1e-06 M | < 1e-06 M | – |
| CCCCCCCCNC(C)C(O)c1ccc(OCC(C)C)cc1 (stereo not shown) [Compound 78] | – | at least equal to that of papaverine | – | – | IC50 [3, 6]: < 1e-06 M; IC50 [3, 7]: < 1e-06 M |
| CCCCCCCCNC(C)C(OC(=O)Cc1ccccc1)c1ccc(SC(C)C)cc1 (stereo not shown) [Compound 34] | suitable antihypertensive activity | – | – | – | – |
| CCCCCCCCCCCCNC(C)C(O)c1ccc(OC)cc1 (stereo not shown) [Compound 88] | – | – | – | – | IC50 [3, 6]: < 1e-06 M; IC50 [3, 7]: < 1e-06 M |
| CCCCCCNC(C)C(O)c1ccccc1 (stereo not shown) [Compound 83] | – | at least equal to that of papaverine | – | – | IC50 [3, 6]: < 1e-06 M; IC50 [3, 7]: < 1e-06 M |

| Structure (SMILES) | antihypertensive activity [1] | peripheral vasodilator activity (compared with papaverine) [2] | IC50 [3, 4] | IC50 [3, 5] | other results |
| --- | --- | --- | --- | --- | --- |
| CCCCCCCCNC(C)C(O)c1ccc(C(C)C)cc1 (stereo not shown) [Compound 81, 1-(4-isopropylphenyl)-2-n-octylamino-1-propanol] | – | at least equal to that of papaverine | – | – | IC50 [3, 6]: < 1e-06 M; IC50 [3, 7]: < 1e-06 M |
| CC(C)Sc1ccc(C(OC(=O)C(C)C)C(C)NCCCCc2ccccc2)cc1 (stereo not shown) [Compound 26] | – | at least equal to that of papaverine | < 1e-06 M | < 1e-06 M | – |
| CCCCCCCCNC(C)C(OC(=O)C1CCC1)c1ccc(SC(C)C)cc1 (stereo not shown) [Compound 9] | – | at least equal to that of papaverine | < 1e-06 M | < 1e-06 M | – |
| CCCCCCCCNC(C)C(OC(=O)CC)c1ccc(SC2CCCCC2)cc1 (stereo not shown) [Compound 11] | – | – | < 1e-06 M | < 1e-06 M | – |
| CCCCCCCCNC(C)C(OC(=O)C(C)C)c1ccc(OCCCC)cc1 (stereo not shown) [Compound 19, 1-(p-n-Butyloxyphenyl)-1-sec-butyryloxy-2-n-octylaminopropane] | suitable antihypertensive activity | – | – | – | – |
| CC(C)Sc1ccc(C(OC(=O)C2CCC2)C(C)NCCCCc2ccccc2)cc1 (stereo not shown) [Compound 10] | suitable antihypertensive activity | – | < 1e-06 M | < 1e-06 M | – |
| CC(C)Oc1ccc(C(O)C(C)NCCCCc2ccccc2)cc1 (stereo not shown) [Compound 94, 1-(4-Isopropoxyphenyl)-2-(4-phenylbutylamino)-1-propanol] | suitable antihypertensive activity | – | – | – | – |
| CC(=O)OC(c1ccc(SC(C)C)cc1)C(C)NCCCC(=O)c1ccc(F)cc1 (stereo not shown) [Compound 43] | suitable antihypertensive activity | – | – | – | – |
| CC(N)(Cc1ccc(O)c(O)c1)C(=O)O (stereo not drawn) [α-methyldopa, reference compound] | – | – | – | – | antihypertensive effect (rating) ([1]; 100 mgr/kg): +++ (reduction of 30 to 50 mm Hg) |
| CCCC(=O)OC(c1ccc(SC(C)C)cc1)C(C)NCCOc1ccccc1 (stereo not shown) [Compound 24] | suitable antihypertensive activity | – | < 1e-06 M | < 1e-06 M | – |
| CCCCCCCCNC(C)C(OC(=O)CCC)c1ccc(SC(C)C)cc1.Cl (stereo not shown) [Compound 6, 1-Butyryloxy-1-(4-isopropylthiophenyl)-2-n-octylaminopropane hydrochloride] | – | at least equal to that of papaverine | < 1e-06 M | < 1e-06 M | – |
| CCCCCCCCN[C@@H](C)[C@@H](OC(=O)C1CCCCC1)c1ccc(SC(C)C)cc1 (relative stereo) [Compound 29] | – | – | < 1e-06 M | < 1e-06 M | – |
| CCCCCCCCNC(C)C(OC(C)=O)c1ccc(SC2CCCC2)cc1 (stereo not shown) [Compound 15] | – | at least equal to that of papaverine | – | – | IC50 [3, 6]: < 1e-06 M; IC50 [3, 7]: < 1e-06 M |
| CCCCCCCCNC(C)C(OC(=O)CC1CCCCC1)c1ccc(SC(C)C)cc1 (stereo not shown) [Compound 37] | suitable antihypertensive activity | – | – | – | – |
| CCCCCCNC(C)C(O)c1ccc(OCC(C)C)cc1 (stereo not shown) [Compound 79] | – | at least equal to that of papaverine | – | – | – |
| CCCCCCCCNC(C)C(OC(=O)CC)c1ccc(SC(C)C)cc1 (stereo not shown) [Compound 2] | – | – | < 1e-06 M | < 1e-06 M | – |
| CCCCCCCCNC(C)C(OC(=O)C1CC1)c1ccc(SC(C)C)cc1 (stereo not shown) [Compound 28] | – | – | < 1e-06 M | < 1e-06 M | – |
| CC(C)Sc1ccc(C(OC(=O)C(C)C)C(C)NCCOc2ccccc2)cc1 (stereo not shown) [Compound 22] | – | – | < 1e-06 M | < 1e-06 M | – |
| CCCCCCCCNC(C)C(O)c1ccc(Cl)cc1 (stereo not shown) [Compound 85] | – | at least equal to that of papaverine | – | – | IC50 [3, 6]: < 1e-06 M; IC50 [3, 7]: < 1e-06 M |
